Assay results taken from paper PMC8795197, “Safety and activity of WX-0593 (Iruplinalkib) in patients with ALK- or ROS1-rearranged advanced non-small cell lung cancer: a phase 1 dose-escalation and dose-expansion trial” (Signal Transduction and Targeted Therapy, 2022).

How the values were obtained:
[1] = target: M1 (Homo sapiens, UniProt P11229); assay: GPCR antagonist screening assay; type: cell-based
[2] = Repeated-dose toxicity study, 28 days oral gavage
Description: Repeated administration for 28 days was carried out. 3, 10, and 30 mg/kg were administered to rats. 1, 3, and 10 mg/kg were administered to cynomolgus monkeys.

[3] = in vivo; conditions: male
[4] = Metabolite identification in plasma; type: in vivo, SD rat; conditions: oral WX-0593
Source text: Under current experimental conditions, a total of 2 metabolites in addition to the parent drug were detected in rat plasma: a demethylation metabolite, M2 (MW = 554.23, P - CH2) and a mono-oxidation and dehydrogenation product, M6 (MW = 582.23, P + O - 2H). Based on the % peak area from mass spectrometry, the drug exists primarily as the parent drug in the plasma of both male and female rats (97.24% in females and 96.81% in males). Metabolites M2 (2.76% in females and 2.88% in males) and M6 ([…] and 0.31% in males) were both secondary metabolites. Based on the types of metabolites, it is speculated that WX-0593 is mainly metabolized through demethylation, oxidation, and dehydrogenation after oral administration in rats. There was no significant difference in metabolites between female and male rats.

[5] = system: NCI-H3122 (EML4-ALK fusion gene positive) human NSCLC; assay: CDX model: efficacy and exposure in plasma, tumor, brain, lung; type: in vivo
Source text: NCI-H3122 (EML4-ALK fusion gene positive) is an ALK wild type human NSCLC. […] Higher drug concentration in the lungs provides the material basis for the treatment of lung cancer.

[6] = Tissue distribution of total radioactivity after [14C]WX-0593; type: in vivo, SD rats
Description: At 0.5 h after drug administration, the total radioactivity was mainly distributed in the gastrointestinal tract, liver, oesophagus, and adrenal glands. […] The distribution of total radioactivity in other tissues in descending order was lungs, kidneys, spleen, pancreas, lymph nodes, heart, uterus and ovaries, plasma, thymus, prostate, whole blood, skeletal muscles, skin, testis and epididymis, and whole brain. […] Only the total radioactivity of skeletal muscles (1417 ng Eq./g), whole blood (1366 ng Eq./g), body fat (1079 ng Eq./g), testis and epididymis (619 ng Eq./g), and whole brain (114 ng Eq./g) were lower than that of plasma at the same time point. […] At the last sampling time point (72 h), most total radioactivity had been cleared from the body and only the spleen, adrenal glands, liver, testis and epididymis, kidneys, lymph nodes, uterus and ovaries, intestinal wall, lungs, and thymus had been traced small amount of radioactivity.

[7] = in vivo; set-up: species or system nude mice; conditions: mouse
Description: The severely toxic dose in 10% of the animals (STD10) in rodents was > 30 mg/kg. At a dose of 10 mg/kg/day, AUC0-24h (Day 28) was 16800 h·ng/mL in males and 17300 h·ng/mL in females, which is 4.5 times and 4.7 times of the exposure at the effective dose in mice (2.5 mg/kg, AUC0-24h: 3700 h·ng/mL). At a dose of 30 mg/kg/day, AUC0-24h (Day 28) was 27100 h·ng/mL in males and 42400 h·ng/mL in females, which is 7.3 times and 11.5 times of the exposure at the effective dose in nude mice (2.5 mg/kg, AUC0-24h: 3700 h·ng/mL).

[8] = cynomolgus monkey, in vivo
[9] = General pharmacology: CNS and respiratory system; type: in vivo, rats
Description: […]. Therefore, WX-0593 has a low risk of cardiotoxicity. There were no effects on the CNS and respiratory system in rats at doses of 3, 10, and 30 mg/kg. However, WX-0593 10 and 30 mg/kg may result in benign respiratory rate and decreases in minute ventilation in female rats. There were no effects on the cardiovascular system, blood pressure, ECG parameters or waveforms in monkeys at doses of 5, 10, and 25 mg/kg; 10 and 25 mg/kg may result in mild decreases in heart rate (within the normal range) and PR prolongation and QTc shortening associated with bradycardia within the normal range (no statistical difference when compared to the control arm). No cardiovascular system adverse reactions related to the test product were found. The human equivalent dose (using 60 kg) is 3636 mg/person in CNS, 3636 mg/person in male respiratory system and 363.6 mg/person in female respiratory system, and 607 mg/person in cardiovascular system.

[10] = system: Ba/F3 (EML4-ALK-L1196M); assay: Cell proliferation inhibition assay; type: cell-based
[11] = 0.5 h, oral [14C]WX-0593 8 mg/kg

M1, sequence (P11229 whole entry): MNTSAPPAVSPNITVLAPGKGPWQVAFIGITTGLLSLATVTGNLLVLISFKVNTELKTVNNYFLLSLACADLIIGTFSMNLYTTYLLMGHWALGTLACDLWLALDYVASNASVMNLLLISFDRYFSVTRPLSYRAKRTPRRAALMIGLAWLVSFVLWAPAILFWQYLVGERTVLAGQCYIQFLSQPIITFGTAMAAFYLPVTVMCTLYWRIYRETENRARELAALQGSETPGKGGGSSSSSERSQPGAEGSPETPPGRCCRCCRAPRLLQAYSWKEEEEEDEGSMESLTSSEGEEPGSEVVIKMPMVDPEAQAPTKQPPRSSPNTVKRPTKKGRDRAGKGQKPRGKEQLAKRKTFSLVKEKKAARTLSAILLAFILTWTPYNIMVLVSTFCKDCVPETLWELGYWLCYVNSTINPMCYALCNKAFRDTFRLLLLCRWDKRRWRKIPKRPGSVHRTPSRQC

COc1cc(N2CCC3(CCN(C)CC3)CC2)ccc1Nc1ncc(Cl)c(Nc2ccccc2P(C)(C)=O)n1 [WX-0593]
IC50 [1]: > 10 µM
human equivalent dose (HED) ([2]; 1/5 of NOAEL, 60 kg/person): 12 mg/person
human equivalent dose ([2]; 1/6 of HNSTD, 60 kg/person): 32 mg/person
highest non-severely toxic dose (HNSTD) ([2]; 28 days oral gavage): greater than 10 mg/kg/day
HNSTD as multiple of the effective dose in nude mice ([2]; cynomolgus monkey, in vivo): 16 times
NOAEL as multiple of the effective dose in nude mice ([2]; cynomolgus monkey, in vivo): 4.8 times
MTD [3]: 200 mg/kg
% peak area from mass spectrometry in plasma ([4]; female rats): 97.24%
% peak area from mass spectrometry in plasma ([4]; male rats): 96.81%
drug exposure in tumor tissue relative to brigatinib ([5]; 5 mg/kg each): 2 times
efficacy compared with brigatinib ([5]; 5 mg/kg each): comparable
plasma drug exposure compared with brigatinib ([5]; 5 mg/kg each): comparable
drug exposure in the lungs relative to brigatinib ([5]; 5 mg/kg each, 1 h after dosing): approximately 2 times
drug exposure in the brain relative to brigatinib ([5]; 5 mg/kg each, 8 h after dosing): approximately 2 times
drug exposure in the lungs relative to brigatinib ([5]; 5 mg/kg each, 8 h after dosing): approximately 3 times
treatment efficacy versus dose ([5]; 2.5, 5, 10 mg/kg): increased with dose
rank of drug concentrations in tissues ([5]; 1 h and 8 h after dosing, all dose arms (2.5, 5, 10 mg/kg)): lungs > tumor > brain
total radioactivity relative to plasma, adrenal glands ([6]; 0.5 h): 8.76 times
total radioactivity relative to plasma, intestinal wall ([6]; 0.5 h): 28.1 times
total radioactivity relative to plasma, liver ([6]; 0.5 h): 9.96 times
total radioactivity relative to plasma, oesophagus ([6]; 0.5 h): 9.07 times
total radioactivity relative to plasma, stomach wall ([6]; 0.5 h): 18.6 times
mean total radioactivity, adrenal glands [6, 11]: 13334 ng Eq./g
mean total radioactivity, intestinal wall [6, 11]: 42737 ng Eq./g
mean total radioactivity, liver [6, 11]: 15160 ng Eq./g
mean total radioactivity, oesophagus [6, 11]: 13803 ng Eq./g
mean total radioactivity, plasma [6, 11]: 1522 ng Eq./g
mean total radioactivity, stomach wall [6, 11]: 28265 ng Eq./g
total radioactivity, body fat ([6]; 3 h): 1079 ng Eq./g
total radioactivity, plasma ([6]; 3 h): 2062 ng Eq./g
total radioactivity, skeletal muscles ([6]; 3 h): 1417 ng Eq./g
total radioactivity, testis and epididymis ([6]; 3 h): 619 ng Eq./g
total radioactivity, whole blood ([6]; 3 h): 1366 ng Eq./g
total radioactivity, whole brain ([6]; 3 h): 114 ng Eq./g
mean total radioactivity, adrenal glands ([6]; 72 h): 1296 ng Eq./g
mean total radioactivity, intestinal wall ([6]; 72 h): 129 ng Eq./g
mean total radioactivity, kidneys ([6]; 72 h): 438 ng Eq./g
mean total radioactivity, liver ([6]; 72 h): 922 ng Eq./g
mean total radioactivity, lungs ([6]; 72 h): 103 ng Eq./g
mean total radioactivity, lymph nodes ([6]; 72 h): 292 ng Eq./g
mean total radioactivity, spleen ([6]; 72 h): 1883 ng Eq./g
mean total radioactivity, testis and epididymis ([6]; 72 h): 504 ng Eq./g
mean total radioactivity, thymus ([6]; 72 h): 95.8 ng Eq./g
mean total radioactivity, uterus and ovaries ([6]; 72 h): 187 ng Eq./g
murine effective dose [7]: 2.5 mg/kg
AUC(0-t) ([7]; nude, 2.5 mg/kg): 3700 ng·h/mL
MTD as multiple of the effective dose in nude mice [8]: 20 times
effects on the CNS and respiratory system ([9]; 3, 10 and 30 mg/kg): no effects
human equivalent dose, CNS ([9]; using 60 kg): 3636 mg/person
human equivalent dose, female respiratory system ([9]; using 60 kg): 363.6 mg/person
human equivalent dose, male respiratory system ([9]; using 60 kg): 3636 mg/person
growth inhibition [10]: significantly inhibits the growth
